Data set [1] deals with NMD. In words: Inhibition of NMD with a protein synthesis inhibitor. The settings on record: preliminary. The source says:
The major drawbacks to using the RNA-based cDNA assay are that the gene-specific RNA may not be produced in an easily collectable tissue and mutant RNA may be lost to a great extent by NMD. […] NMD can be minimized by pre-treating collected cells, such as white blood cells, with a protein synthesis inhibitor before RNA collection. This approach has been successful for the yeast gap repair p53 assay (Flaman et al., 1995; Andreutti-Zaugg et al., 1997) and may be extrapolated to in vivo studies by the administration of a protein synthesis inhibitor to rat pups prior to tissue collection. […] The problem of a gene-specific RNA not being produced in tail tissue may be reduced by extending the range of biopsy tissues collected from viable rats, e.g., WBC, liver, skin, etc. In the future as it becomes possible to cryopreserve rat sperm from F1 male rats of mutagenized fathers, their sperm can be frozen and a wide variety of organ-specific RNAs could also be collected and stored, along with DNA from tails or spleens. DNAs or RNAs from a large number of rats could be screened and the appropriate frozen sperm used for the mutant rat recovery via in vitro fertilization and implantation. […]

Data set [2] deals with mutated HEXA allele mRNA. The conditions noted are these: increased from undetectable; cited from earlier work.
The subject of data set [3] is CYP1A1 RNA mutant allele. The conditions noted are these: cell line with a CYP1A1 mutation; cited from earlier work.
For data set [4], the system named is NMD of hMSH2 and hMLH1. The conditions noted are these: treatment of freshly drawn whole blood; cited from earlier work.
For data set [5] the following is noted: even at high doses; cited from earlier work.

This is an account of results in patent publication US20070056052A1, “Methods of generating knock-out rodents” (priority 2001, published 2007).

In the case of `CC[C@H]1CN2CCc3cc(OC)c(OC)cc3[C@@H]2C[C@@H]1C[C@H]1NCCc2cc(OC)c(OC)cc21` [emetine], in data set [1], the “inhibition of NMD” value is given as “preliminary success in inhibiting NMD”.

As for `C[C@@H]1C[C@@H]([C@H](O)CC2CC(=O)NC(=O)C2)C(=O)[C@@H](C)C1` [cyclohexamide], the “mRNA levels of the mutated HEXA allele” value in data set [2] is on record as 40 % of the wild-type allele.

Regarding `COc1ccc(C[C@H](N)C(=O)N[C@H]2[C@@H](O)[C@H](n3cnc4c(N(C)C)ncnc43)O[C@@H]2CO)cc1` [puromycin], in data set [3], the “steady-state level of CYP1A1 RNA mutant allele” value was “fully restored”. In addition, in data set [4], the “NMD of hMSH2 and hMLH1” value is on record as “suppressed”.

Regarding Gentamicin, the short-term toxicity profile result in data set [5] is given as “very low short-term toxicity profile even at high doses”.
